Reference: article PMC6138237, “Machine intelligence decrypts β-lapachone as an allosteric 5-lipoxygenase inhibitor” (Chemical Science, 2018)
Read-outs that look alike come from different tables or passages of the source.

Legend:
EphB4 = target: T1, EphB4 (Homo sapiens, UniProt P54760); test: ExpresS Diversity Kinase Profile, Cerep (LANCE): EphB4; assay type: biochemical
T1 sequence (P54760 16-987): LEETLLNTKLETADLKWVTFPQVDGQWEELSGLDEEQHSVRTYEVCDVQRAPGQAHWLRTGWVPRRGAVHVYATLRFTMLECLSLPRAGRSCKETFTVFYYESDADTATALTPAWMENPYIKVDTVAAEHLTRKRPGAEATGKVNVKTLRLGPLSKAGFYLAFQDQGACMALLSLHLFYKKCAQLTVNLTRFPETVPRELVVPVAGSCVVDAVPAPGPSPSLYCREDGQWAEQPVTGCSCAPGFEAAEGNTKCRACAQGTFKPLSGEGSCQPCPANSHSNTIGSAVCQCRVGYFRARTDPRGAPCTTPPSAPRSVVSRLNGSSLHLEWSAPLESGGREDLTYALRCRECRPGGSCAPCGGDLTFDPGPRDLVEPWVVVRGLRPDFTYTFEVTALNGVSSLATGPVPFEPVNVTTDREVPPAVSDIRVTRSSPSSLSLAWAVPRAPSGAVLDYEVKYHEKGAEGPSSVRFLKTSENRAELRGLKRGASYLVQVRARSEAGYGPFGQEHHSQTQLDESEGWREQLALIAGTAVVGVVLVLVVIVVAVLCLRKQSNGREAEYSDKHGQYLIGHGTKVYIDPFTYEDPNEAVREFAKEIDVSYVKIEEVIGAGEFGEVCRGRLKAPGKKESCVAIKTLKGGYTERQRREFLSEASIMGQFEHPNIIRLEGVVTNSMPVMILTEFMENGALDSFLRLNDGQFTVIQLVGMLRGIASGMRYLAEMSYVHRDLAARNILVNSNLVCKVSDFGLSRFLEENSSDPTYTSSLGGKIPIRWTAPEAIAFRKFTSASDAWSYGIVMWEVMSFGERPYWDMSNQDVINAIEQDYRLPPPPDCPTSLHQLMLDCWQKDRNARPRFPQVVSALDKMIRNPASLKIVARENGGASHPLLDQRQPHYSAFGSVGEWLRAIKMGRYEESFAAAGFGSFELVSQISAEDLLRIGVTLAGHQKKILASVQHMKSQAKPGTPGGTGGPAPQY

JNK1 = JNK1 (Homo sapiens, UniProt P45983); test: ExpresS Diversity Kinase Profile, Cerep (LANCE): JNK1; assay type: biochemical
JNK1, sequence (P45983 whole entry): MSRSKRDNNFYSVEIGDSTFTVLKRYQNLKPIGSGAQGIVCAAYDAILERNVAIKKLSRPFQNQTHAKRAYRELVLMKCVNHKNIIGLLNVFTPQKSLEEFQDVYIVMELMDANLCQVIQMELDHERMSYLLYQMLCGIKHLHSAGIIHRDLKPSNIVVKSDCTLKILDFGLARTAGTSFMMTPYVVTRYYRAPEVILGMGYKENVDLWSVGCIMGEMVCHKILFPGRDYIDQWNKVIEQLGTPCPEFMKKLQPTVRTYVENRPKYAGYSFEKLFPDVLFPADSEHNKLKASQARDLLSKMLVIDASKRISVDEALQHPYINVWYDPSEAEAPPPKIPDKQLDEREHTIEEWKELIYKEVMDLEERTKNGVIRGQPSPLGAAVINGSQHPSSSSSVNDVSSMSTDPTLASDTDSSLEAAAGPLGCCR

AurA = target: T2, AurA (Homo sapiens, UniProt O14965); test: ExpresS Diversity Kinase Profile, Cerep (LANCE): AurA; assay type: biochemical
T2 sequence (O14965 1-403): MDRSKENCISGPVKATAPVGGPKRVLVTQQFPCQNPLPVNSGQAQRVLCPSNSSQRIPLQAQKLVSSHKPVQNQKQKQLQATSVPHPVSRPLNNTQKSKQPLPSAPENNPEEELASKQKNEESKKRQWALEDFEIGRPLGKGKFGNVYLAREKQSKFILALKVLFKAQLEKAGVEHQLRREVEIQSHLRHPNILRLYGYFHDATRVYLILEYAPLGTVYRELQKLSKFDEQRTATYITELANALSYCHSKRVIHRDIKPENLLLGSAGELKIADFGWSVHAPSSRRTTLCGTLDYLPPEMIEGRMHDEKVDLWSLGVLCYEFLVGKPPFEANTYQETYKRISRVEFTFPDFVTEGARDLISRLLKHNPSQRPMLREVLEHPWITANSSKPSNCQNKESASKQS

MAP4K4 = MAP4K4 (Homo sapiens, UniProt O95819); test: ExpresS Diversity Kinase Profile, Cerep (LANCE): MAP4K4; assay type: biochemical
MAP4K4, sequence (O95819 whole entry): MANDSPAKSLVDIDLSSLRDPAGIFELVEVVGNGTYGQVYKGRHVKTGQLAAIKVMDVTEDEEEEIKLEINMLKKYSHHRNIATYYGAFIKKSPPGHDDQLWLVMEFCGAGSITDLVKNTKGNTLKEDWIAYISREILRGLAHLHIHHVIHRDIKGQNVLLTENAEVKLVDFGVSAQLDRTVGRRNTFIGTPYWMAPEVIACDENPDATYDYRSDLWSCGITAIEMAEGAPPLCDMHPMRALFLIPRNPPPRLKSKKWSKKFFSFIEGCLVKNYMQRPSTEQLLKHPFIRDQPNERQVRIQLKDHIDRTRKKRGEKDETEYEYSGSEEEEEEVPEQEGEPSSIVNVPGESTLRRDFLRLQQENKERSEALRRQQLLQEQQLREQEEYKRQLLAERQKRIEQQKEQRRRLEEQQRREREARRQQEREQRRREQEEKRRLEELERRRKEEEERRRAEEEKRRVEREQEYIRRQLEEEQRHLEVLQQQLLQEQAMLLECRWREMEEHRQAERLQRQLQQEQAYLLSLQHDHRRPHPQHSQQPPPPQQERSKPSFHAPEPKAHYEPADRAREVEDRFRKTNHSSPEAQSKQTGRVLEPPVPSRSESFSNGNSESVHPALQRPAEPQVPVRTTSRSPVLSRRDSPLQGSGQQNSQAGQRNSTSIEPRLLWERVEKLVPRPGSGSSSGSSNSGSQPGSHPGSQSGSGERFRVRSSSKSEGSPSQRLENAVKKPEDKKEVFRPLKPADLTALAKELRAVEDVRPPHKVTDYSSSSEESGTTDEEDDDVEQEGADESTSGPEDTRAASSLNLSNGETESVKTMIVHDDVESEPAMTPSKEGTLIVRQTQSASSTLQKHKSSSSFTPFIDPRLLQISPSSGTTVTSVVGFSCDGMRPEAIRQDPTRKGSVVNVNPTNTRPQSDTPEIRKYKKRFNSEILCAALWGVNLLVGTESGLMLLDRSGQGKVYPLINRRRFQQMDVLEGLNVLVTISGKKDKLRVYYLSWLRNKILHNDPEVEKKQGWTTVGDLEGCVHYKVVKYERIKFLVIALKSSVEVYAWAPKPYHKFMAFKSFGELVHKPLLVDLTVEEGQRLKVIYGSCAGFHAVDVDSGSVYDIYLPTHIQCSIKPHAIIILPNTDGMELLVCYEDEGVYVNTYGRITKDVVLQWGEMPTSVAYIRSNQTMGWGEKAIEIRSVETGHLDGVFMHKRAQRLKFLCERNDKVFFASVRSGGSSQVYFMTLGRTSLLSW

NEK2 = target: T3, NEK2 (Homo sapiens, UniProt P51955); test: ExpresS Diversity Kinase Profile, Cerep (LANCE): NEK2; assay type: biochemical
T3 sequence (P51955 1-445): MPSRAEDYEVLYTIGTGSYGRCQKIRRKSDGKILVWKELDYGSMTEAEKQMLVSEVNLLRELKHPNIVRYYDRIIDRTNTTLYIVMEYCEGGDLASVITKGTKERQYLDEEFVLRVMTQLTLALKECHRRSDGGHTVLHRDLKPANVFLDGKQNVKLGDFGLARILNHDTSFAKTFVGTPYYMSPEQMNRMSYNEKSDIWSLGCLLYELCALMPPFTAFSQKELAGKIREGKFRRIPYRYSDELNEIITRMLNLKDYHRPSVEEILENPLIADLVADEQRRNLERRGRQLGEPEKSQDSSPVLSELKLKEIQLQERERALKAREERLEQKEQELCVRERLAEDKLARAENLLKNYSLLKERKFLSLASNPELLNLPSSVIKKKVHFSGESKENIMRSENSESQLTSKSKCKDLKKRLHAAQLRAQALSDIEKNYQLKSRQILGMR

c-Met = c-Met (Homo sapiens, UniProt P08581); test: ExpresS Diversity Kinase Profile, Cerep (LANCE): c-Met; assay type: biochemical
c-Met, sequence (P08581 25-1390): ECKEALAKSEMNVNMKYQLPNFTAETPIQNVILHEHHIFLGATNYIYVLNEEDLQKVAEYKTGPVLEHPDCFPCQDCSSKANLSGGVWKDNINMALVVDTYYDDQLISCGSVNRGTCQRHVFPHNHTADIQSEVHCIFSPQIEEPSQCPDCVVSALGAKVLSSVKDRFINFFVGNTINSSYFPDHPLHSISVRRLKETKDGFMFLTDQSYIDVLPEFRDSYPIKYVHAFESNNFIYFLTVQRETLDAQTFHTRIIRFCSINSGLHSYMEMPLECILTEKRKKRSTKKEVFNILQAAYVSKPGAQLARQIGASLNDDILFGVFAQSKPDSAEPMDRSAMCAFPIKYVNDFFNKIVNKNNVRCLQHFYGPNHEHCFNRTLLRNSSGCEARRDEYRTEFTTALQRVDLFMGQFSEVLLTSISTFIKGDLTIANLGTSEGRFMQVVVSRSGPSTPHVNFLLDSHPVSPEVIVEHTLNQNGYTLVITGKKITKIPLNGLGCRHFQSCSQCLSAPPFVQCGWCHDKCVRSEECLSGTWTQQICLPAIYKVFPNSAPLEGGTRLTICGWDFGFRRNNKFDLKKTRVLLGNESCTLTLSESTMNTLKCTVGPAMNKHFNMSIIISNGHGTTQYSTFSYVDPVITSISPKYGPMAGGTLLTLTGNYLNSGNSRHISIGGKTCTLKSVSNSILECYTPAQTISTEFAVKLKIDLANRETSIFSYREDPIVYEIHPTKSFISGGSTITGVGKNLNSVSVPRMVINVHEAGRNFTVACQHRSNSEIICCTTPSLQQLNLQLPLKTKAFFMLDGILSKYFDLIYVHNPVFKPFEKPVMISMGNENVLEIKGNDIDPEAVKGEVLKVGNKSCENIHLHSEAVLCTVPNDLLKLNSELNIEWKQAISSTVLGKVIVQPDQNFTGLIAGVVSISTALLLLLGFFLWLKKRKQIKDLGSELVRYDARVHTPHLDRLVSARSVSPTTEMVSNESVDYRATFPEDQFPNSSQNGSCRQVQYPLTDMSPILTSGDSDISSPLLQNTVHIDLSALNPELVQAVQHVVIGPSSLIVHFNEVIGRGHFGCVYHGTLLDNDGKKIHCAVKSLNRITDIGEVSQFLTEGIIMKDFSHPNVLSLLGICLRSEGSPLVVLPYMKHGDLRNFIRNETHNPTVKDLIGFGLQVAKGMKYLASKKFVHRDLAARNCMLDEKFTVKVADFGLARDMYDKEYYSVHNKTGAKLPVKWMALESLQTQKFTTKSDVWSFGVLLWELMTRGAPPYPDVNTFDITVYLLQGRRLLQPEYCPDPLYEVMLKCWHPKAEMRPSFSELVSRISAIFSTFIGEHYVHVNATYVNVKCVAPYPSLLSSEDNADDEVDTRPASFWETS

IRK = IRK (Homo sapiens, UniProt P06213); test: ExpresS Diversity Kinase Profile, Cerep (LANCE): IRK; assay type: biochemical
GSK3β = GSK3β (Homo sapiens, UniProt P49841); test: ExpresS Diversity Kinase Profile, Cerep (LANCE): GSK3β; assay type: biochemical
GSK3β, sequence (P49841 whole entry): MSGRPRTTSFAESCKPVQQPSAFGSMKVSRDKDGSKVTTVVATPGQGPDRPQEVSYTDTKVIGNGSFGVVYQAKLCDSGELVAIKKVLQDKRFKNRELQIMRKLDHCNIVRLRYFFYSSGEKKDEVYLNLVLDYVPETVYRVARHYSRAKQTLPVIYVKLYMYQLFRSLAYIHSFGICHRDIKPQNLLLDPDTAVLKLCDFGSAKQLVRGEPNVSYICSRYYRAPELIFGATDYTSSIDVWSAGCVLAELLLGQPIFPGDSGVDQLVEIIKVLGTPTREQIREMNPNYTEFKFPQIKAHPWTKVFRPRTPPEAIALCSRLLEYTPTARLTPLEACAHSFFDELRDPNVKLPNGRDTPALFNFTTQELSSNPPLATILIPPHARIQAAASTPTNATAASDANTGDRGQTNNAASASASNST

Abl = Abl (Homo sapiens, UniProt P00519); test: ExpresS Diversity Kinase Profile, Cerep (LANCE): Abl; assay type: biochemical
TRPM8 = target: T4, TRPM8 (Homo sapiens, UniProt Q7Z2W7); test: TRPM8 functional agonist assay, Cerep (intracellular Ca2+); assay type: cell-based; conditions: TRPM8 (agonist), 150 µM
T4 construct: Cerep, SA (fee-for-service assay) printed G018533 (citation number 33 glued on)
T4 sequence (Q7Z2W7 whole entry): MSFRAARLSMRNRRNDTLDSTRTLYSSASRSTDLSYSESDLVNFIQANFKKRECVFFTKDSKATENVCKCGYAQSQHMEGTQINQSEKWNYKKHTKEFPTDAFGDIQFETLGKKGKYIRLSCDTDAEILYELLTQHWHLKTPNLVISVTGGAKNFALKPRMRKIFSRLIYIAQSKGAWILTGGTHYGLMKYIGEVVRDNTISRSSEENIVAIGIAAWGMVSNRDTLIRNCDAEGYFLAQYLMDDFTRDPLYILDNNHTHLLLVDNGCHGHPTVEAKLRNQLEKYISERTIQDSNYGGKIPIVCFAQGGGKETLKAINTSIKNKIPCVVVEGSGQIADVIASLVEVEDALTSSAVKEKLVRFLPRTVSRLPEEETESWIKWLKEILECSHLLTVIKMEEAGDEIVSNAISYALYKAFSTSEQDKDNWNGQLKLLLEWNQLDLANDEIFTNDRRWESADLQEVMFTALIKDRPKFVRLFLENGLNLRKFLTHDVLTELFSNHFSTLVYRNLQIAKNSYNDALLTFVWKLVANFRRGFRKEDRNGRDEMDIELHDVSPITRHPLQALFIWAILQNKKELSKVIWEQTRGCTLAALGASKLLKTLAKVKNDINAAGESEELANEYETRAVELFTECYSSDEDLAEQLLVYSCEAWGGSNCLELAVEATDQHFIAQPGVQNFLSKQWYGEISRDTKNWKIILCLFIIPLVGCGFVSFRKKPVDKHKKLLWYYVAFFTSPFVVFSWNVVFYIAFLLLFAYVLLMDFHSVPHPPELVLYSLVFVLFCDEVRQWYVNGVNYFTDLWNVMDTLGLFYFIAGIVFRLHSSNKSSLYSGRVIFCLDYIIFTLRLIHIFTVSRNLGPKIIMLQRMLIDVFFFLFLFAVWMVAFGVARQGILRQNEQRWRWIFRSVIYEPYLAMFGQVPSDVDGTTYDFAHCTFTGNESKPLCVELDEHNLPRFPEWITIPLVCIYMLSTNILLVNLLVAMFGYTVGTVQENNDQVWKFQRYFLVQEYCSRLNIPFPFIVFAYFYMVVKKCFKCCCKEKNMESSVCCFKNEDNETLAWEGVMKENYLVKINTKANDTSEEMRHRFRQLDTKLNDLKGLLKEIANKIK

Escherichia coli K12 = test: Minimum inhibitory concentration assay, Escherichia coli; conditions: concentrations up to 50 µM
CHK2 = CHK2 (Homo sapiens, UniProt O96017); test: ExpresS Diversity Kinase Profile, Cerep (LANCE): CHK2; assay type: biochemical
CHK2, sequence (O96017 whole entry): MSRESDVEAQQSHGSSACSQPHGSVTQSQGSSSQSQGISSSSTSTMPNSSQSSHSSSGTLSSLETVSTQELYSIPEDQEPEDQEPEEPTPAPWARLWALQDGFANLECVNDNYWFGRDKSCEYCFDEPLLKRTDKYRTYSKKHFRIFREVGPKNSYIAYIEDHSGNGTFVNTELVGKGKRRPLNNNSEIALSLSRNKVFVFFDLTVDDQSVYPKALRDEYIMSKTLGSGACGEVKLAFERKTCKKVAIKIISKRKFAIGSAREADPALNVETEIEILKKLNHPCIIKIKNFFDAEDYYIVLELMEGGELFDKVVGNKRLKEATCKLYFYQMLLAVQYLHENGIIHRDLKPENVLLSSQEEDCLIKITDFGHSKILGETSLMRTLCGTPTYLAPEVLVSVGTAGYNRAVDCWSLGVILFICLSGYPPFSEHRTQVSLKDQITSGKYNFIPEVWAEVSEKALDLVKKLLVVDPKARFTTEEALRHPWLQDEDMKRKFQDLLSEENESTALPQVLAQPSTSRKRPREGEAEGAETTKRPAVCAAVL

Pim2 = Pim2 (Homo sapiens, UniProt Q9P1W9); test: ExpresS Diversity Kinase Profile, Cerep (LANCE): Pim2; assay type: biochemical; conditions: Flag: Interference
[1] = n = 2, read-out: % Inhibition of control values, Mean
[2] = read-out: % Inhibition of control values, 1st measurement
[3] = read-out: % Inhibition of control values, 2nd measurement
[4] = Flag: Interference, read-out: % Inhibition of control values, 1st measurement
[5] = Flag: Interference, read-out: % Inhibition of control values, 2nd measurement
[6] = n = 2, Flag: Interference, read-out: % Inhibition of control values, Mean

SMILES: CN[C@@H]1C[C@H]2O[C@@](C)([C@@H]1OC)n1c3ccccc3c3c4c(c5c6ccccc6n2c5c31)C(=O)NC4 [Staurosporine, reference compound]
- nHill (EphB4; control): 1.1
- nHill (JNK1; control): 1.8
- nHill (AurA; control): 2.5
- nHill (MAP4K4; control): 2.7
- nHill (NEK2; control): 0.9
- nHill (c-Met; control): 1.8
- nHill (IRK; control): 1.0

SMILES: CC1(C)CCC2=C(O1)c1ccccc1C(=O)C2=O [β-Lapachone]
- inhibition at 150 µM (GSK3β; [1]): 94.2%
- inhibition at 150 µM (GSK3β; [2]): 95%
- inhibition at 150 µM (GSK3β; [3]): 93.4%
- inhibition at 150 µM (Abl; [1]): 42.4%
- inhibition at 150 µM (Abl; [2]): 42.9%
- inhibition at 150 µM (Abl; [3]): 41.8%
- inhibition at 150 µM (EphB4; [4]): 54.6%
- inhibition at 150 µM (EphB4; [5]): 55.1%
- inhibition at 150 µM (EphB4; [6]): 54.8%
- inhibition at 150 µM (JNK1; [4]): 59.8%
- inhibition at 150 µM (JNK1; [5]): 55.6%
- inhibition at 150 µM (JNK1; [6]): 57.7%
- inhibition at 150 µM (AurA; [4]): -16.5%
- inhibition at 150 µM (AurA; [5]): 0.2%
- inhibition at 150 µM (AurA; [6]): -8.1%
- inhibition at 150 µM (MAP4K4; [1]): 48.6%
- inhibition at 150 µM (MAP4K4; [2]): 47.7%
- inhibition at 150 µM (MAP4K4; [3]): 49.5%
- remaining activity at 150 µM (TRPM8; n = 2, read-out: % of control values, Mean): -20.4%
- remaining activity at 150 µM (TRPM8; read-out: % of control values, 1st measurement): -20.4%
- remaining activity at 150 µM (TRPM8; read-out: % of control values, 2nd measurement): -20.4%
- inhibition at 150 µM (NEK2; [4]): 19%
- inhibition at 150 µM (NEK2; [5]): 18.4%
- inhibition at 150 µM (NEK2; [6]): 18.7%
- phenotypic effects on Escherichia coli (Escherichia coli K12): No phenotypic effects
- inhibition at 150 µM (CHK2; [4]): 46.6%
- inhibition at 150 µM (CHK2; [5]): 59.5%
- inhibition at 150 µM (CHK2; [6]): 53.1%
- inhibition at 150 µM (c-Met; [4]): 45.3%
- inhibition at 150 µM (c-Met; [5]): 50.6%
- inhibition at 150 µM (c-Met; [6]): 47.9%
- inhibition at 150 µM (Pim2; [2]): 79.6%
- inhibition at 150 µM (Pim2; [3]): 82.6%
- inhibition at 150 µM (IRK; [1]): 50.8%
- inhibition at 150 µM (IRK; [2]): 50.9%
- inhibition at 150 µM (IRK; [3]): 50.6%
